Data set [1] relates to Listeria monocytogenes in J774 cells. Put plainly: Intracellular growth of Listeria monocytogenes in J774 cells. Type of data set: cell-based. On the procedure:
J774 cells grown in spinner culture were centrifuged for 5 min. at 1000 RPM. The cells were resuspended in fresh DME+5% HICS without antibiotics at a concentration of 2×10^5. 5 ml of this cell suspension was plated into each 60 mm Petri dish containing multiple 12×1 mm round coverslips (Fisher Scientific Co.) the evening before use to allow the cells to form monolayers on the coverslips. The cells were incubated overnight at 37° C.
L. monocytogenes was incubated overnight in BHI broth to a density of approximately 10^9 /ml in a shaker at 37° C. 1 ml of the bacterial suspension was sedimented in a microfuge tube (USA/Scientific Plastics, Ocala, Fla.) for 1 min at 8000 RPM. The supernatant was removed and the pellet was washed once in 1 ml of PBS at pH 7.4. The bacteria were then resuspended in 1 ml fresh DME+5% HICS, diluted in DME+5% HICS to a concentration of 2×10^5 bacteria per ml, and 5 ml of this suspension (10^6 bacteria total) was placed in each 60 mm dish containing a monolayer of J774 cells (infection ratio 1:1). The dishes were incubated at 35° C. for 60 minutes. The coverslip was then transferred to a new 60 mm petri dish containing 10 ml of pre warmed DME+5% HICS and 5 μg/ml of gentamicin. The cells were incubated in the gentamicin containing medium for 1 hr. at 35° C. to kill extracellular bacteria, as described by Portnoy et al. (9), at which time additional drugs were added as indicated below. One 60 mm dish received no addition (control). Other 60 mm dishes received Gemfibrozil (GFZ) (0.2 mM), and/or Norfloxacin (NFX) at 2, 4 or 8 μg per ml, as indicated. Drugs were added either separately or in combination to make four independent sets: No addition, GFZ alone, NFX alone, or GFZ+NFX. The cultures were further incubated at 35° C. Three coverslips containing the Listeria-infected J774 cells were harvested from each culture dish at 2 hours after infection and at 2 hour intervals thereafter. The number of bacteria in the J774 cells on each cover slip was determined by depositing each coverslip into 5 ml of sterile distilled water in a 15 ml Falcon tube. The tubes were vortexed for 15 sec. to lyse the infected cells and 10 or 50 μL of each Listeria-containing solution was plated onto 10 cm dishes containing LB agar. The LB agar plates were incubated at 37° C. overnight, the bacterial colonies were counted, and the number of bacteria per cover slip was calculated from the number of colonies on the agar. Every data point represents the average of the number of bacterial colonies recovered from three coverslips.

Data set [2] deals with organic anion transporters of J774 cells. Type of data set: cell-based, mouse.
For data set [3] the test system is unchanged. Put plainly: Lucifer Yellow secretion (efflux) from J774 cells. It counts as cell-based, mouse. On the procedure:
Cells were incubated in D10 containing 0.5 mg/ml Lucifer Yellow and 5 mM ATP with or without 10 mM penicillin G. The cells were then washed and incubated in fresh medium at 37° C. At intervals, the cells were viewed by fluorescence microscopy.

Data set [4] has the same test system. In words: Intracellular Lucifer Yellow accumulation during ATP permeabilization of J774 cells. Type of data set: cell-based, mouse. The conditions noted are these: for effect on intracellular accumulation of Lucifer Yellow during ATP permeabilization: added together with 0.5 mg/ml Lucifer Yellow and 5 mM ATP. The protocol:
The cells were incubated in phosphate buffered saline with divalent cations (PBS) containing 0.5 mg/ml Lucifer Yellow, 5 mM ATP and other compounds, at 37° C. as indicated in the text. The wells were washed with cold phosphate buffered saline without divalent cations (PD) 3 times, and plates were immersed successively in three beakers containing 1,000 ml cold PD. The first beaker also contained 0.1% bovine serum albumin. The cells then were lysed in 0.05% Triton X-100, and fluorescence was measured in a fluorescence spectrophotometer using an excitation wavelength of 430 nm and an emission wavelength 540 nm. Total cell protein was measured by a modification of the Lowery method. (6) Results were expressed as ng Lucifer Yellow/mg protein.
An assay to identify competitive inhibitors of the organic anion transporters that mediate the secretion of Lucifer Yellow was developed. It was reasoned that any substrate of the organic anion transporter small enough to enter the cells through ATP-induced pores, when added together with Lucifer Yellow during ATP permeabilization, would compete with Lucifer Yellow for efflux and cause higher intracellular accumulation of Lucifer Yellow. This assay was used to determine whether various substrates for other organic anion transporters competed with Lucifer Yellow for secretion by J774 cells.

For data set [5] the test system is unchanged. The conditions noted are these: cited from earlier work; for effect on intracellular sequestration and secretion of Lucifer Yellow: macrophages and J774 cells.
The test system of data set [6] is L. monocytogenes. Put plainly: Extracellular growth assay: minimum inhibitory concentration (MIC). The conditions noted are these: Listeria monocytogenes; brain-heart infusion broth; read-out: NFX concentration that blocked growth of LM (MIC). It counts as cell-based. On the procedure:
L. monocytogenes were inoculated into 1 ml of BHI broth and grown overnight in BHI broth to a density of approximately 10^9 bacteria per ml, diluted to a concentration of 2×10^3 bacteria per ml in Brain Heart Infusion Broth, and 0.5 ml aliquots of this suspension were placed in separate tubes. Norfloxacin (NFX) at the indicated concentrations in 0.5 ml BHI broth was added to the tubes containing L. monocytogenes, and the bacteria were incubated overnight at 25° C., 30° C. and 35° C. The MIC of NFX for L. monocytogenes was determined by visual inspection (tubes without antibiotic, in which the bacteria grew contained a cloudy suspension).

The subject of data set [7] is organic anion transporters of J774 cells. It counts as cell-based, mouse. The conditions noted are these: for intracellular accumulation of radiolabel from [3H] norfloxacin: J774 cells incubated with [3H] norfloxacin and the inhibitor. The protocol:
[^3 H]-Norfloxacin Retention in J774 Cells: J774 cells were prepared as above. The cells were incubated in PBS with 1.5 μCi/ml [^3 H] norfloxacin in the presence or absence of 10 mM probenecid for various lengths of time, washed and lysed. Cell-associated radioactivity and protein were quantitated as above.

Data set [8] relates to L. monocytogenes. Put plainly: Extracellular growth assay: minimum bacteriocidal concentration (MBC). It counts as cell-based. The conditions noted are these: Listeria monocytogenes; brain-heart infusion broth; read-out: NFX concentration bacteriocidal for LM (MBC). On the procedure: 10 μl of the contents of each sample from the MIC assay described above was plated on 10 cm plates containing 20 ml. LB, agar, and the plates were incubated overnight at 25° C., 30° C. and 35° C. The number of colonies were counted.

For another data set, the system named is J774 cells. Put plainly: Uptake of [14C] penicillin G by adherent J774 cells from extracellular medium. It counts as cell-based, mouse. The settings on record: even in the presence of 10 mM probenecid. On the procedure: It was then questioned whether penicillin G was taken up by J774 cells from the extracellular medium, and whether this uptake was affected by organic anion transporters. In these experiments, adherent J774 cells were incubated in medium containing [^14 C] penicillin G, the cells were washed, and intracellular radiolabel was measured.

In data set [9] the test system is organic anion transporters of J774 cells.
The next data set in a line: Toxicity to J774 cells. It counts as cell-based. The settings on record: mouse, read-out: concentrations toxic to the cells.

Each structure is given as a SMILES string. Converted amounts (≈) assume the structure as drawn. “Also recorded” adds a separate entry of the source. Like-named read-outs stand apart in the source and are kept apart here. Bounds are passed on as bounds.

In the case of `Cc1ccc(C)c(OCCCC(C)(C)C(=O)O)c1` [GFZ, 5-(2,5-dimethylphenoxy)-2,2-dimethylpentanoic acid], the “intracellular growth of LM in J774 cells” value in [1] (0.2 mM GFZ alone) is “has no effect on the rate or extent of growth; also recorded: does not inhibit growth”. In addition, in [2] (0.2 mM GFZ), the “enhancement of intracellular accumulation of NFX” value is recorded as “four-fold”. For the same compound, in [2] (J774 cells, read-out: ED50 for enhancing intracellular accumulation of [3H]NFX), the EC50 was 15 µM. In [2] ([3H]NFX accumulation by J774 cells), the “ED50 lower than the ED50 of PB or sulfinpyrazone” value was determined as 30 fold. Also, the “concentration inhibiting Lucifer Yellow secretion relative to PB” value in [3] is “ten-fold lower concentration than PB”.
With `O=C(O)[C@H](O)[C@@H](O)[C@H](O)[C@H](O)CO` [Gluconic acid], the “effect on intracellular accumulation of Lucifer Yellow during ATP permeabilization” value (“effect on intracellular accumulation” below) in [4] is recorded as “had no effect”. In data set [2] (10 mM gluconic acid compared with norfloxacin only in PBS), the “effect on intracellular norfloxacin concentration” value was “did not affect”.
For the compound `NNC(=O)NN1C(=O)c2cc(S(=O)(=O)O)cc3c(N)c(S(=O)(=O)O)cc(c23)C1=O` [Lucifer Yellow], the “dye secreted by the cells into the medium” value in data set [5] (within 30 minutes after ATP-mediated permeabilization) is 80-85%.
Turning to `CCn1cc(C(=O)O)c(=O)c2cc(F)c(N3CCNCC3)cc21` [NFX, Norfloxacin], the MIC in the data set on L. monocytogenes [6] came to 4 µg/mL (≈ 12.5 µM). Further, the entries for the “intracellular growth of LM in J774 cells” value in data set [1] (2 μg/ml NFX alone), in data set [1] (4 μg/ml NFX alone) and in data set [1] (8 μg/ml NFX alone) were “little inhibitory effect; also recorded: slowed intracellular growth”, “marked inhibition of intracellular growth; also recorded: bacteriostatic” and “bacteriostatic effect”, respectively. The “time at which intracellular norfloxacin concentration reached plateau” value in [7] was no more than 10 min. Also, the MBC in the data set with L. monocytogenes [8] was 8 µg/mL (≈ 25.1 µM).
For `CC1(C)S[C@@H]2[C@H](NC(=O)Cc3ccccc3)C(=O)N2[C@H]1C(=O)O` [penicillin G], the “effect on intracellular accumulation” value in data set [4] was “increase Lucifer Yellow retention in a dose-dependent manner”. Also, the “intracellular radiolabel after incubation with [14C] penicillin G without ATP permeabilization” value in the data set with J774 cells is “could not be readily detected”. Further, the “penicillin originally inside the cells secreted into the medium” value in data set [9] is “about 80%”. In addition, in [2] (preloaded with 10 mM by ATP-permeabilization, compared with 10 mM gluconic acid preload), the “accumulation of [3H] norfloxacin in preloaded cells” value is “significant increase”. The “rate of Lucifer Yellow efflux after co-loading by ATP permeabilization” value in data set [3] (10 mM penicillin G, fluorescence microscopy) was “reduced the rate of Lucifer Yellow afflux”.
For the compound `CCCN(CCC)S(=O)(=O)c1ccc(C(=O)O)cc1` [probenecid, Probenecid], in data set [4] (5-10 mM probenecid in medium with Lucifer Yellow and ATP), the “increase of intracellular retention of Lucifer Yellow” value stood at 2.5 fold. For the same compound, in data set [5], the “effect on intracellular sequestration and secretion of Lucifer Yellow” value was “inhibit both intracellular sequestration and secretion of Lucifer Yellow”. Besides, in data set [7], the “intracellular accumulation of radiolabel from [3H] norfloxacin” value is “marked increase”. The “time at which intracellular norfloxacin concentration reached plateau” value in [7] (in the presence of 10 mM probenecid) came to 30 min. For the same compound, the “enhancement of intracellular accumulation of norfloxacin” value in data set [7] (j774 cells, 10000 µM) was 3-4 fold. Moreover, the “intracellular penicillin secreted from the cells” value in [9] (after 30 minutes, in the presence of 10 mM probenecid) was 37%. In [2] (10 mM probenecid 30 minutes, then washed), the “reversibility of the effect on norfloxacin retention” value was “reversible”. In [2] (30 minutes, J774 cells, read-out: ED50 for enhancing intracellular retention of norfloxacin), the EC50 stood at 500 µM. In addition, the “[3H] norfloxacin remaining in cells after probenecid removal relative to cells never incubated in probenecid” value in data set [2] (steady state after removal of 10 mM probenecid) is listed as “twice”. In addition, in data set [3], the “concentrations that block secretion of Lucifer Yellow, penicillin and Norfloxacin” value lay in the range of 2 to 5 mM.
For the compound `NC(=O)c1cnccn1` [pyrazinamide], the “effect on intracellular accumulation” value in data set [4] is “had no effect”.
`O=C1C(CC[S+]([O-])c2ccccc2)C(=O)N(c2ccccc2)N1c1ccccc1` (centres unmarked) [sulfinpyrazone]: the “effect on intracellular sequestration and secretion of Lucifer Yellow” value in [5] is “inhibit both intracellular sequestration and secretion of Lucifer Yellow”. The MCC in the data set “Toxicity to J774 cells” was greater than 2.5 mM. Besides, the “intracellular accumulation of radiolabel from [3H] norfloxacin” value in data set [7] is “marked increase”. Moreover, in data set [2] (30 minutes, J774 cells), the “ED50 for enhancing intracellular retention of norfloxacin (in words)” value is recorded as “essentially the same as that for probenecid”. Further, the “concentrations that block secretion of Lucifer Yellow, penicillin and Norfloxacin” value in data set [3] was 2 to 5 mM.

The values are drawn from patent publication US5422372A, “Method of increasing intracellular accumulation of hydrophilic anionic agents using gemfibrizol” (priority 1993, dated 1995).
